Test results from patent publication US20250268826A1, “IONIZABLE LIPIDOID COMPOSITIONS AND THERAPEUTIC USES THEREOF” (Flagship Pioneering Innovations VII, LLC, priority 2023, published 2025).

Columns and labels:
Type in all cases: physicochemical
[1] = LNP size and polydispersity index (PDI) by dynamic light scattering (DLS)
[2] = LNP Zeta potential measured using a Zetasizer (Malvern); settings: for Zeta potential: hEPO mRNA, N:P 6; for Zeta potential (mV): LNP with hEPO mRNA, N:P ratio 6
[3] = Encapsulation efficiency (EE %) by fluorescence based Ribogreen assay
[4] = Table 8, LNP 50:10:38.5:1.5 mol %, hEPO mRNA, N:P 6
[5] = Table 8, LNP Lipid:DSPC:Cholesterol:DMG-PEG2k 50:10:38.5:1.5 mol %, hEPO mRNA, N:P 6
[6] = Table 8, LNP 50:10:38.5:1.5 mol %
[7] = Table 9, LNP 50:10:38.5:1.5 mol %, hEPO mRNA, N:P 6
[8] = Table 9, LNP Lipid:DSPC:Cholesterol:DMG-PEG2k 50:10:38.5:1.5 mol %, hEPO mRNA, N:P 6
[9] = Table 9, LNP 50:10:38.5:1.5 mol %
[10] = Table 5, LNP 50:10:38.5:1.5 mol %, hEPO mRNA, N:P 6
[11] = Table 5, LNP 60:0:38.5:1.5 mol %, hEPO mRNA, N:P 6
[12] = Table 5, LNP Lipid:DSPC:Cholesterol:DMG-PEG2k 50:10:38.5:1.5 mol %, hEPO mRNA, N:P 6
[13] = Table 5, LNP 50:10:38.5:1.5 mol %
[14] = Table 1, LNP lipid:DSPC:Cholesterol:DMG-PEG2k 50:10:38.5:1.5 mol %, hEPO mRNA, N:P 6
[15] = Table 1, LNP lipid:DSPC:Cholesterol:DMG-PEG2k 50:10:38.5:1.5 mol %
[16] = Table 10, LNP with hEPO mRNA, Lipid:DSPC:Cholesterol:DMG-PEG2k 50:10:38.5:1.5 mol %, N:P ratio 6, DLS
[17] = Table 10, Lipid:DSPC:Cholesterol:DMG-PEG2k 50:10:38.5:1.5 mol %
[18] = Table 10, LNP with hEPO mRNA, Lipid:DSPC:Cholesterol:DMG-PEG2k 50:10:38.5:1.5 mol %, N:P ratio 6, Ribogreen assay
[19] = Table 11, LNP with hEPO mRNA, Lipid:DSPC:Cholesterol:DMG-PEG2k 50:10:38.5:1.5 mol % (ALC-0315: 46.3:9.4:42.7:1.6), N:P ratio 6, HEPES/sodium chloride/sucrose buffer, stored at −80C
[20] = Table 11, Lipid:DSPC:Cholesterol:DMG-PEG2k 50:10:38.5:1.5 mol % (ALC-0315: 46.3:9.4:42.7:1.6), HEPES/sodium chloride/sucrose buffer, stored at −80C
[21] = Table 3, LNP 50:10:38.5:1.5 mol %, hEPO mRNA, N:P 6

For `CCCCCCCCC(CCCCCC)C(=O)OCCN(CCOC(=O)C(CCCCCC)CCCCCCCC)C(=O)CCCN(C)CCC.Cl` (stereo not shown) [Compound 938], the PDI [1, 4] was 0.248, the Size [1, 5] was 103.7 nm and the Zeta potential [2, 6] was −18.3 mV. The “Encapsulation Efficiency %” value [3, 4] was 99.9%.
`CCCCCCCCC(CCCCCC)C(=O)OCCN(CCOC(=O)C(CCCCCC)CCCCCCCC)C(=O)CNCC.Cl` (stereo not shown) [Compound 965] gave a PDI [1, 7] of 0.216, a Size [1, 8] of 76.3 nm and a Zeta potential [2, 9] of −14.27 mV. The “Encapsulation Efficiency %” value [3, 7] was 98.6%.
`CCCCCCCCC(CCCCCC)C(=O)OCCN(CCOC(=O)C(CCCCCC)CCCCCCCC)C(=O)CCCN(CC)CC.Cl` (stereo not shown) [Compound 937] showed a PDI [1, 4] of 0.136, a Size [1, 5] of 144 nm and a Zeta potential [2, 6] of −9.2 mV. The “Encapsulation Efficiency %” value [3, 4] was 99.9%.
In the case of `CCCCCCCC(CCCCCCC)C(=O)OCCN(CCOC(=O)C(CCCCCCC)CCCCCCC)C(=O)CN` [Compound 604], the PDI [1, 10] is reported as 0.102, the PDI [1, 11] is reported as 0.15 and the Size [1, 11] is reported as 236.6 nm. For the same compound, the Size [1, 12] was 208.5 nm, the Zeta potential [2, 13] was −7.347 mV and the Zeta potential ([2]; Table 5, LNP 60:0:38.5:1.5 mol %) was −3.753 mV. The “Encapsulation Efficiency %” value [3, 10] was 99.3% and the “Encapsulation Efficiency %” value [3, 11] was 98%.
With `CCCCCCCCC(CCCCCC)C(=O)OCCN(CCOC(=O)C(CCCCCC)CCCCCCCC)C(=O)CCCN(C)CCC.Cl` (stereo not shown) [Compound 939] the PDI [1, 4] was 0.172, the Size [1, 5] was 103.5 nm and the Zeta potential [2, 6] was −14.9 mV. The “Encapsulation Efficiency %” value [3, 4] was 98.5%.
Work on `CCCCCCCC/C=C\CCCCCCCC(=O)OCCN(CCOC(=O)CCCCCCC/C=C\CCCCCCCC)C(=O)CN` [Compound 101] yielded a PDI [1, 14] of 0.088, a Size [1, 14] of 62.6 nm and a Zeta potential [2, 15] of 4.394 mV. For the same compound, the “Encapsulation Efficiency %” value [3, 14] was 97.9%.
For `CCCCCCCCCC(CCCCCCCCC)C(=O)OCCN(CCOC(=O)C(CCCCCCCCC)CCCCCCCCC)C(=O)CCN(C)CCC` [Compound 917g], the PDI [1, 16] was 0.281, the “Size (nm)” value [1, 16] was 49.2 nm and the “Zeta potential (mV)” value [2, 17] was −10.2 mV. The “Encapsulation Efficiency %” value [3, 18] was 93.5%.
With `CCCCCCCCCC(CCCCCCCCC)C(=O)OCCN(CCOC(=O)C(CCCCCCCCC)CCCCCCCCC)C(=O)CN(C)C.Cl` [Compound 963] the PDI [1, 7] was 0.447, the Size [1, 8] was 76.1 nm and the Zeta potential [2, 9] was −41.21 mV. The “Encapsulation Efficiency %” value [3, 7] was 99.2%.
For `CCCCCCCCC(CCCCCC)C(=O)OCCN(CCOC(=O)C(CCCCCC)CCCCCCCC)C(=O)C(C)CCN(C)CC.Cl` (stereo not shown) [Compound 987f], the PDI [1, 19] was 0.072, the “Size (nm)” value [1, 19] was 79.4 nm and the “Zeta potential (mV)” value [2, 20] was −2.8 mV. The “Encapsulation Efficiency %” value [3, 19] was 92.3%.
In the case of `CCCCCCCCCCC(CCCC)C(=O)OCCN(CCOC(=O)C(CCCC)CCCCCCCCCC)C(=O)C(C)N` (stereo not shown) [Compound 612], the PDI [1, 10] is reported as 0.403, the Size [1, 12] is reported as 69.9 nm and the Zeta potential [2, 13] is reported as −3.371 mV. The “Encapsulation Efficiency %” value [3, 10] was 99.8%.
`CCCCCCCC/C=C\CCCCCCCC(=O)OCCN(CCOC(=O)CCCCCCC/C=C\CCCCCCCC)C(=O)C(C)N` (stereo not shown) [Compound 107] showed a Size [1, 14] of 100.4 nm, a PDI [1, 21] of 0.016 and a Size ([1]; Table 3, LNP lipid:DSPC:Cholesterol:DMG-PEG2k 50:10:38.5:1.5 mol %, hEPO mRNA, N:P 6) of 60.6 nm. For the same compound, the Zeta potential [2, 15] was 5.484 mV, the “Encapsulation Efficiency %” value [3, 14] was 93% and the “Encapsulation Efficiency %” value [3, 21] was 99.9%.
In the case of `CCCCCCCCC(CCCCCC)C(=O)OCCN(CCOC(=O)C(CCCCCC)CCCCCCCC)C(=O)C(C)CCN(CCCC)CCCC.Cl` (stereo not shown) [Compound 987o], the PDI [1, 19] is reported as 0.121, the “Size (nm)” value [1, 19] is reported as 57.4 nm and the “Zeta potential (mV)” value [2, 20] is reported as −4.1 mV. The “Encapsulation Efficiency %” value [3, 19] was 90.2%.
Compound `CCCCCCCCC(CC)C(=O)OCCN(CCOC(=O)C(CC)CCCCCCCC)C(=O)CN` (stereo not shown) [Compound 603] has a PDI [1, 10] of 0.213, a Size [1, 12] of 71.7 nm and a Zeta potential [2, 13] of −3.116 mV. The “Encapsulation Efficiency %” value [3, 10] was 98.4%.
With `CCCCCCCCCC(CCCCCCCCC)C(=O)OCCN(CCOC(=O)C(CCCCCCCCC)CCCCCCCCC)C(=O)CN` [Compound 607] the Size [1, 12] was 68.9 nm, the Zeta potential [2, 13] was −12.44 mV and the “Encapsulation Efficiency %” value [3, 10] was 99.7%.
In the case of `CCCCCCCCC(CCCCCC)C(=O)OCCCCCCN(CCCCO)CCCCCCOC(=O)C(CCCCCC)CCCCCCCC` (stereo not shown) [ALC-0315, reference compound], the PDI [1, 16] is reported as 0.295, the “Size (nm)” value [1, 16] is reported as 61.4 nm and the PDI [1, 19] is reported as 0.280. The “Size (nm)” value [1, 19] was 74.7 nm, the “Zeta potential (mV)” value [2, 17] was −10.3 mV and the “Zeta potential (mV)” value [2, 20] was −7.5 mV. For the same compound, the “Encapsulation Efficiency %” value [3, 18] was 83.8% and the “Encapsulation Efficiency %” value [3, 19] was 91.0%.
For `CCCCCCCCC(CCCCCC)C(=O)OCCN(CCOC(=O)C(CCCCCC)CCCCCCCC)C(=O)CN(CC)CCC.Cl` (single isomer, unassigned) [Compound 960a], the PDI [1, 7] was 0.125, the Size [1, 8] was 77.4 nm and the Zeta potential [2, 9] was −28.49 mV. The “Encapsulation Efficiency %” value [3, 7] was 99.7%.
